Experiments:
[1] = test system: isolated rat aorta preparations; assay: spasmolytic effectiveness, noradrenaline-induced contractions; conditions: read-out: ED50 noradrenaline spasm
[2] = test system: isolated rat aorta preparations; assay: spasmolytic effectiveness, potassium chloride-induced contractions; conditions: read-out: ED50 potassium chloride spasm
guinea pigs = assay: blood pressure-lowering effectiveness on narcotised guinea pigs, intravenous; assay type: in vivo, guinea pig; conditions: for blood pressure previously: before administration
[3] = acute toxicity, intravenous; assay type: in vivo; conditions: mouse, in vivo, iv; within 24 hours; read-out: Evaluated LD50-range
female NMRI-albino mice = assay: acute toxicity, intravenous; assay type: in vivo; conditions: within 24 hours

Compound	IC50 [1]	IC50 [2]	blood pressure afterwards (guinea pigs; 0.25 mg/kg i.v.)	blood pressure previously (guinea pigs; 0.25 mg/kg i.v.)	blood pressure afterwards (guinea pigs; 1.00 mg/kg i.v.)	blood pressure previously (guinea pigs; 1.00 mg/kg i.v.)	blood pressure afterwards (guinea pigs; 2.50 mg/kg i.v.)	blood pressure previously (guinea pigs; 2.50 mg/kg i.v.)	blood pressure Δ (guinea pigs; 0.25 mg/kg i.v.)	blood pressure Δ (guinea pigs; 1.00 mg/kg i.v.)	blood pressure Δ (guinea pigs; 2.50 mg/kg i.v.)	LD50 at 24 h [3]	Frequency of death (female NMRI-albino mice; 100 mg/kg i.v.)	Frequency of death (female NMRI-albino mice; 200 mg/kg i.v.)	Frequency of death (female NMRI-albino mice; 50 mg/kg i.v.)
Cn1c(=O)c2c(ncn2[C@H]2CO[C@H]3[C@@H]2OC[C@@H]3O[N+](=O)[O-])n(C)c1=O [Example 12b, 5-(7-Theophyllinyl)-5-desoxy-1.4;3.6-dianhydro-L-iditol 2-nitrate]	3200 nM	4.2 µM													
O=[N+]([O-])O[C@@H]1CO[C@H]2[C@@H]1OC[C@@H]2O [ISMN, 1.4;3.6-dianhydro-D-glucitol 2-nitrate, reference compound]			53.90 ± 3.10 mm. Hg	57.60 ± 3.10 mm. Hg	48.40 ± 3.20 mm. Hg	54.70 ± 3.80 mm. Hg	41.40 ± 3.90 mm. Hg	52.30 ± 4.80 mm. Hg							
CC(C)(C)C(=O)Nc1ncnc2c1ncn2[C@H]1CO[C@H]2[C@@H]1OC[C@@H]2O[N+](=O)[O-] [Example 10, 5-[9-(6-N-Pivaloyl)-adenyl]-5-desoxy-1.4;3.6-dianhydro-L-iditol 2-nitrate]	302 nM	6.5 µM													
O=[N+]([O-])O[C@H]1CO[C@H]2[C@@H]1OC[C@@H]2n1cnc2c(N3CCCCC3)ncnc21 [Example 7b, 5-(6-Piperidinopurin-9-yl)-5-desoxy-1.4;3.6-dianhydro-L-iditol 2-nitrate]	240 nM	2.9 µM													
CN1CCN(c2ncnc3c2ncn3[C@H]2CO[C@H]3[C@@H]2OC[C@@H]3O[N+](=O)[O-])CC1 [Example 9b, 5-[6-(4-Methylpiperazino)-purin-9-yl]-5-desoxy-1.4;3.6-dianhydro-L-iditol 2-nitrate]	2650 nM	25 µM	70.25 ± 8.39 mm. Hg	72.50 ± 6.20 mm. Hg	69.75 ± 7.44 mm. Hg	73.25 ± 6.24 mm. Hg	59.75 ± 4.82 mm. Hg	72.50 ± 5.24 mm. Hg	-2.25 mm. Hg	-3.50 mm. Hg	-12.75 mm. Hg	50 to 100 mg/kg	4/6	3/3	
CCNc1ncnc2c1ncn2[C@H]1CO[C@H]2[C@@H]1OC[C@@H]2O[N+](=O)[O-] [Example 5b, 5-(6-Ethylaminopurin-9-yl)-5-desoxy-1.4;3.6-dianhydro-L-iditol 2-nitrate]	380 nM	13 µM	71.00 ± 5.04 mm. Hg	76.50 ± 2.66 mm. Hg	65.75 ± 3.75 mm. Hg	78.50 ± 1.70 mm. Hg	51.00 ± 3.13 mm. Hg	76.25 ± 2.59 mm. Hg	-5.50 mm. Hg	-12.75 mm. Hg	-25.25 mm. Hg	50 to 100 mg/kg	3/6	3/3	1/11
O=[N+]([O-])O[C@H]1CO[C@H]2[C@@H]1OC[C@@H]2n1cnc2c(N3CCCC3)ncnc21 [Example 6b, 5-(6-Pyrrolidinopurin-9-yl)-5-desoxy-1.4;3.6-dianhydro-L-iditol 2-nitrate]	540 nM	4.07 µM	51.50 ± 4.94 mm. Hg	65.00 ± 4.02 mm. Hg	44.75 ± 2.84 mm. Hg	65.50 ± 2.36 mm. Hg	37.25 ± 1.11 mm. Hg	62.00 ± 2.04 mm. Hg	-13.50 mm. Hg	-20.75 mm. Hg	-24.75 mm. Hg	50 to 100 mg/kg	3/3	3/3	0/3
CN(C)c1ncnc2c1ncn2[C@H]1CO[C@H]2[C@@H]1OC[C@@H]2O[N+](=O)[O-] [Example 4b, 5-(6-Dimethylaminopurin-9yl)-5-desoxy-1.4;3.6-dianhydro-L-iditol 2-nitrate]	220 nM	29 µM	63.25 ± 4.23 mm. Hg	73.75 ± 2.14 mm. Hg	59.00 ± 1.47 mm. Hg	74.00 ± 1.91 mm. Hg	43.50 ± 2.50 mm. Hg	72.00 ± 2.45 mm. Hg	-10.50 mm. Hg	-15.00 mm. Hg	-28.50 mm. Hg	50 to 100 mg/kg	3/3	3/3	0/3
CNc1ncnc2c1ncn2[C@H]1CO[C@H]2[C@@H]1OC[C@@H]2O[N+](=O)[O-] [Example 3c, 5-(6-Methylaminopurin-9-yl)-5-desoxy-1.4;3.6-dianhydro-L-iditol 2-nitrate]	480 nM	4.6 µM	79.25 ± 2.56 mm. Hg	79.50 ± 2.50 mm. Hg	71.50 ± 3.97 mm. Hg	79.50 ± 2.66 mm. Hg	61.50 ± 3.23 mm. Hg	77.00 ± 2.80 mm. Hg	-0.25 mm. Hg	-8.00 mm. Hg	-15.50 mm. Hg	100 to 200 mg/kg	0/6	3/3	
O=[N+]([O-])O[C@H]1CO[C@H]2[C@@H]1OC[C@@H]2n1cnc2c(N3CCOCC3)ncnc21 [Example 8b, 5-(6-Morpholinopurin-9-yl)-5-desoxy-1.4;3.6-dianhydro-L-iditol 2-nitrate]	290 nM	3 µM													
O=[N+]([O-])O[C@H]1CO[C@H]2[C@@H]1OC[C@@H]2n1cnc2c(NCc3ccccc3)ncnc21 [Example 13b, 5-(6-Benzylaminopurin-9-yl)-5-desoxy-1.4;3.6-dianhydro-L-iditol 2-nitrate]	16.8 nM	2.4 µM													

From patent US4479951A, “1.4;3.6-Dianhydrohexitol nitrates substituted by purine bases, processes for their preparation and pharmaceutical compositions” (Dr. Willmar Schwabe GmbH & Co., priority 1980, dated 1984)
